Data taken from patent publication US11286247B2, “Acryloyl-containing nuclear transport regulators and uses thereof” (WIGEN BIOMEDICINE TECHNOLOGY (SHANGHAI) CO., LTD., priority 2019, dated 2022).
pIC50: −log10 of the molar value. In brackets after ≈: the same amount, converted by molar mass. Like-named read-outs stand apart in the source and are kept apart here.

What was measured:
CRM1 = target: T1, CRM1 (Homo sapiens, UniProt O14980); assay: Rev-GFP nuclear export assay; type: cell-based; conditions: U2OS cells expressing Rev-GFP, 1 hour incubation, nuclear retention of Rev-GFP
T1 construct: The nuclear localization of Rev protein depends on CRM1; endogenous in cells; host or cells: U2OS cells stably or transiently expressing Rev-GFP (reporter cargo)
Description: The Rev protein from HIV contains nuclear export sequence (NES) at its C terminus and nuclear localization sequence (NLS) at its N-terminus. The nuclear localization of Rev protein depends on CRM1. U2OS cells expressing Rev protein fused with GFP (Rev-GFP) were plated in black 384 plates with clear bottom one day prior to treatment. Compounds were serially diluted 2-fold from 40 μM with DMEM in 384 plates, and then incubated with U2OS cells for an hour. Cells were fixed with 3.7% formaldehyde afterwards and nuclei were stained with Hoechst33258. The nuclear retention of Rev-GFP was examined, and IC50 was calculated.

[1] = system: MDA-MB-231 cells (breast cancer cells); assay: Cancer cell proliferation assay, MDA-MB-231; type: cell-based; conditions: Homo sapiens; for IC50: MDA-MB-231, 72 h, three days incubation, absorbance 570 nm, read-out: IC50 (μM) MDA-MB-231; for pIC50: MDA-MB-231, anti-proliferative assay, read-out: IC50 in MDA-MB-231 cells
Description: (§1) BxPC-3 cells (pancreatic cancer) and MDA-MB-231 cells (breast cancer cells) were harvested from exponential phase cultures and seeded in 96-well plates at a cell density of 2×10^4 per well. After overnight attachment, compounds including positive controls were applied to cells at five concentrations and incubated for three days. During the last four hours of incubation, 20 μL of 5 mg/mL […] was added followed by the further addition of 100 μL DMSO. The plates were subsequently shook for 10 minutes to dissolve insoluble purple formazan. Absorbance (A) at a wavelength of 570 nm was quantified. Percentage of inhibition was used for the calculation of IC50 based on the bliss method.

[2] = system: BxPC-3 cells (pancreatic cancer); assay: Cancer cell proliferation assay, BxPC-3; type: cell-based; conditions: for IC50 / pIC50: Homo sapiens; for IC50: BXPC-3, 72 h, three days incubation, absorbance 570 nm, read-out: IC50 (μM) BxPC-3; for pIC50: BXPC-3, anti-proliferative assay, read-out: IC50 in BxPC-3 cells
Description: as §1

Aqueous solubility assay = type: physicochemical; conditions: thermodynamic from solid, HPLC
Description: 10-30 mg of compounds were dissolved in water and an HCl solution at pH1.2 respectively, and then were continuously shook for three days, followed by centrifugation at 10000 rpm/minute for five minutes. A 2 mL aliquot of supernatant was removed and diluted to 50 mL to prepare a sample solution. A control solution was prepared by dissolving 2.5 mg compounds in methanol, which was subsequently diluted with water to a final volume of 50 mL. 20 μL of control and sample solutions were injected into HPLC. The area under the curve (A) of the sample solution was compared with that of the control solution and used for determination of the concentration. Solubility was calculated by the formula below. Solubility (mg/mL)=c(control)*25*A(sample)/A(control) • C (control): concentration of the control solution • A (sample): area under the curve of the sample solution • A (control): area under the curve of the control solution

[3] = In vivo pharmacokinetic analysis; conditions: ICR, mouse; mice, 5 mg/kg, oral gavage in 0.5% CMC, plasma
Description: A group of 9 ICR mice received 5 mg/kg of compound in 0.5% CMC by oral gavage. Blood was taken before treatment and at 5 min, 30 min, 1, 2, 4, 8, 12 and 24 h after treatment. 80 μL of whole blood was sampled (n=3 at each time point) via retro-orbital bleeds or cardiac puncture. The blood sample was collected into EDTA tubes and plasma were obtained by centrifugation at 1500-1600 rpm for 10 min at 4° C. After centrifugation, plasma sample was transferred to a new tube and stored at −60 to −90° C. for future analysis. Plasma concentration of (compounds was quantified by a method based on liquid chromatography coupled to tandem mass-spectrometric detections (LC/MS/MS). Noncompartmental pharmacokinetics parameters were calculated.

BxPC-3 xenografts = assay: Anti-tumor growth efficacy in pancreatic tumor BxPC3 nude mice xenograft model; type: in vivo; conditions: for Tumor volume D1 / average body weight D1: D1, first day of drug treatment; for Tumor volume D1 / average body weight D1 / TGI (tumor growth inhibition) / Tumor volume D21 / average body weight D21 / RTV (relative tumor volume, Vt/V0) / T/C: oral: KPT-330 and 38 10 mg/kg tiw, 79 2.5 mg/kg tiw, 62 10 mg/kg qd; for TGI (tumor growth inhibition) / Tumor volume D21 / average body weight D21 / RTV (relative tumor volume, Vt/V0): D21; for RTV (relative tumor volume, Vt/V0): *P < 0.05 vs. vehicle group; for T/C: TRTV/CRTV X 100
Description: BxPC-3 cells were cultured in 1640 medium containing 10% FBS at 37° C. and 5% CO2, 8×10^6 BxPc-3 cells were implanted subcutaneously into the left armpit of 40 nude mice. […] Compound 62 was administered orally everyday (qd) at 10 mg/kg, whereas KPT330 and compound 38 were given three times a week (tiw, Monday, Wednesday and Friday) at 10 mg/kg by oral gavage, and compound 79 were given three times a week (tiw, Monday, Wednesday and Friday) at 2.5 mg/kg by oral gavage. Tumor volume and body weight were measured every other day. Mice were sacrificed on day 21, and tumor and terminal body weight were recorded. The relative tumor volume, percent treatment/control values and tumor growth inhibition were calculated and statistics was performed.

[4] = simulated gastric fluid, HCl solution of pH 1.2, shaken three days, read-out: Solubility, HCl solution of pH 1.2
[5] = water, shaken three days, read-out: Solubility, Water

T1 sequence (O14980 whole entry): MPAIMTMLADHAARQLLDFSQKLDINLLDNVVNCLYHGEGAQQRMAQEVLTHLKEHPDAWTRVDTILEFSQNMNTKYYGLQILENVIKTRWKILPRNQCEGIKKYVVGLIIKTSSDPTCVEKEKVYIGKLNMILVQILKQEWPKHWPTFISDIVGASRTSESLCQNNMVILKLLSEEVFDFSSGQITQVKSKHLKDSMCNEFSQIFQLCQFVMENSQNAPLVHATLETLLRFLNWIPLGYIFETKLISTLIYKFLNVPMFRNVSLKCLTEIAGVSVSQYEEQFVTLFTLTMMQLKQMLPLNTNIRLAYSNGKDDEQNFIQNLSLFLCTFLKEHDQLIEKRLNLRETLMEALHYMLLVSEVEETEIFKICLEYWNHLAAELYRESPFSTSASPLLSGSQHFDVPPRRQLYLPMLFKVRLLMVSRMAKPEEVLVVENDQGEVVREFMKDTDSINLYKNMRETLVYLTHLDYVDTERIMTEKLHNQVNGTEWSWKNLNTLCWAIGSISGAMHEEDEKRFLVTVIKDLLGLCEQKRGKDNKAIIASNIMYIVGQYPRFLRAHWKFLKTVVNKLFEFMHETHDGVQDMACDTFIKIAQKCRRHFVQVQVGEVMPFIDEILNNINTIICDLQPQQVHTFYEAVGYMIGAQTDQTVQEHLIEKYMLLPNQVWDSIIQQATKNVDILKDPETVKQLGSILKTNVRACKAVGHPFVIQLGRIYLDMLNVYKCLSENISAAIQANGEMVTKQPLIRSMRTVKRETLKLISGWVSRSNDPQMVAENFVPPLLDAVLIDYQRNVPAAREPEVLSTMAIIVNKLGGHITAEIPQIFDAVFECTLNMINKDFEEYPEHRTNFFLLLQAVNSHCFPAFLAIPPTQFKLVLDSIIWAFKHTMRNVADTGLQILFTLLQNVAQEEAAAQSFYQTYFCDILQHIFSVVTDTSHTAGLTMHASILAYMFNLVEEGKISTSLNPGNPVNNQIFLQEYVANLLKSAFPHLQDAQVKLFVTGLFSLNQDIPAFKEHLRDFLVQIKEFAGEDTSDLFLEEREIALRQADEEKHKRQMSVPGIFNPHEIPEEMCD

| Compound | pIC50 (CRM1) | IC50 [1] [µM] | IC50 [2] [µM] | solubility at 3 days (Aqueous solubility assay; [4]) [µg/mL] | solubility at 3 days (Aqueous solubility assay; [5]) [µg/mL] | AUC(0-t) [3] [ng·h/mL] | Cmax [3] [ng/mL] | MRT [3] [h] | Tmax [3] [h] | half-life [3] [h] | Tumor volume D1 (BxPC-3 xenografts) [mm^3] | average body weight D1 (BxPC-3 xenografts) [g] | TGI (tumor growth inhibition) (BxPC-3 xenografts) [%] | Tumor volume D21 (BxPC-3 xenografts) [mm^3] | average body weight D21 (BxPC-3 xenografts) [g] | T/C (BxPC-3 xenografts) [%] | further results |
| --- | --- | --- | --- | --- | --- | --- | --- | --- | --- | --- | --- | --- | --- | --- | --- | --- | --- |
| CN1CCC2(CC1)CC(=O)N(NC(=O)/C=C\n1cnc(-c3cc(C(F)(F)F)cc(C(F)(F)F)c3)n1)C2 [Compound 23, (Z)-3-(3-(3,5-bis(trifluoromethyl)phenyl)-1H-1,2,4-triazol-1-yl)-N-(8-methyl-3-oxo-2,8-diazaspiro[4.5]decan-2-yl)acrylamide] | > 6.00 | 0.407 | 0.664 | 159 (≈ 307 µM) | 40.3 (≈ 78.1 µM) | – | – | – | – | – | – | – | – | – | – | – | – |
| O=C(/C=C\n1cnc(-c2cc(C(F)(F)F)cc(C(F)(F)F)c2)n1)NN1CCOCC1=O [Compound 38, (Z)-3-(3-(3,5-bis(trifluoromethyl)phenyl)-1H-1,2,4-triazol-1-yl)-N-(3-oxomorpholino)acrylamide] | > 6.00 | 0.654 | 0.283 | 71.4 (≈ 159 µM) | 50.4 (≈ 112 µM) | 4390 | 536 | 6.67 | 0.5 | 4.53 | 65.89 ± 12.63 | 19.02 | 78.20 | 149.62 ± 23.20 | 20.80 | 36.02 | effect on body weight (in words) (BxPC-3 xenografts; 10 mg/kg, compared to KPT-330): less effect on body weight; RTV (relative tumor volume, Vt/V0) (BxPC-3 xenografts): 2.45*; anti-tumor growth activity in BxPC-3 xenograft model (in words) (BxPC-3 xenografts; Example 79 2.5 mg/kg, Example 38 10 mg/kg, compared to 10 mg/kg KPT-330): greater efficacy |
| COCCN1C(=O)CCN1C(=O)/C=C\n1cnc(-c2cc(C(F)(F)F)cc(C(F)(F)F)c2)n1 [Compound 71, (Z)-1-(3-(3-(3,5-bis(trifluoromethyl)phenyl)-1H-1,2,4-triazol-1-yl)acryloyl)-2-(2-methoxyethyl)pyrazolidin-3-one] | > 6.00 | 0.245 | 0.586 | 147 (≈ 307 µM) | 229 (≈ 479 µM) | – | – | – | – | – | – | – | – | – | – | – | – |
| O=C(/C=C\n1cnc(-c2cc(C(F)(F)F)cc(C(F)(F)F)c2)n1)N1CCCN1 [Compound 90, (Z)-3-(3-(3,5-bis(trifluoromethyl)phenyl)-1H-1,2,4-triazol-1-yl)-1-(pyrazolidin-1-yl)prop-2-en-1-one] | – | – | – | 349 (≈ 861 µM) | 156 (≈ 386 µM) | – | – | – | – | – | – | – | – | – | – | – | – |
| O=C(/C=C\n1cnc(-c2cc(C(F)(F)F)cc(C(F)(F)F)c2)n1)NNc1cnccn1 [KPT-330, Selinexor, reference compound] | – | 0.458 | 0.705 | 6.52 (≈ 14.7 µM) | 6.25 (≈ 14.1 µM) | 2470 | 325 | 6.94 | 0.5 | 2.66 | 65.06 ± 6.45 | 19.97 | 77.55 | 151.31 ± 23.90 | 19.97 | 35.02 | pIC50 [1]: 6.34; pIC50 [2]: 6.15 |

More lines, main results first:

| pIC50 (CRM1) | IC50 [1] [µM] | IC50 [2] [µM] | solubility at 3 days (Aqueous solubility assay; [4]) [µg/mL] | solubility at 3 days (Aqueous solubility assay; [5]) [µg/mL] | AUC(0-t) [3] [ng·h/mL] | Cmax [3] [ng/mL] | MRT [3] [h] | Tmax [3] [h] | half-life [3] [h] | Compound | Tumor volume D1 (BxPC-3 xenografts) [mm^3] | average body weight D1 (BxPC-3 xenografts) [g] | TGI (tumor growth inhibition) (BxPC-3 xenografts) [%] | Tumor volume D21 (BxPC-3 xenografts) [mm^3] | average body weight D21 (BxPC-3 xenografts) [g] | T/C (BxPC-3 xenografts) [%] | further results |
| --- | --- | --- | --- | --- | --- | --- | --- | --- | --- | --- | --- | --- | --- | --- | --- | --- | --- |
| > 6.00 | 0.024 | 0.269 | 14.6 (≈ 33.6 µM) | 11.3 (≈ 26.1 µM) | 2660 | 502 | 6.59 | 0.5 | 4.58 | O=C(/C=C\n1cnc(-c2cc(C(F)(F)F)cc(C(F)(F)F)c2)n1)NN1CCCC1=O [Compound 2, (Z)-3-(3-(3,5-bis(trifluoromethyl)phenyl)-1H-1,2,4-triazol-1-yl)-N-(2-oxopyrrolidin-1-yl)acrylamide] | – | – | – | – | – | – | – |
| > 6.00 | 0.165 | 0.156 | – | – | 5770 | 697 | 6.76 | 1 | 4.36 | O=C(/C=C\n1cnc(-c2cc(C(F)(F)F)cc(C(F)(F)F)c2)n1)NN1C(=O)[C@@H]2CC[C@H]1C2 [Compound 33, (Z)-3-(3-(3,5-bis(trifluoromethyl)phenyl)-1H-1,2,4-triazol-1-yl)-N-((1S,4R)-3-oxo-2-azabicyclo[2.2.1]heptan-2-yl)acrylamide] | – | – | – | – | – | – | – |
| > 6.00 | 0.186 | 0.124 | 220 (≈ 508 µM) | 320 (≈ 738 µM) | – | – | – | – | – | CN1C(=O)CCN1C(=O)/C=C\n1cnc(-c2cc(C(F)(F)F)cc(C(F)(F)F)c2)n1 [Compound 62, (Z)-1-(3-(3-(3,5-bis(trifluoromethyl)phenyl)-1H-1,2,4-triazol-1-yl)acryloyl)-2-methylpyrazolidin-3-one] | 65.32 ± 6.61 | 20.55 | 77.35 | 152.32 ± 24.78 | 21.08 | 35.10 | RTV (relative tumor volume, Vt/V0) (BxPC-3 xenografts): 2.33* |
| > 6.00 | 0.119 | 0.137 | 27.4 (≈ 58 µM) | 20.9 (≈ 44.2 µM) | – | – | – | – | – | O=C(/C=C\n1cnc(-c2cc(C(F)(F)F)cc(C(F)(F)F)c2)n1)N1CCC(=O)N1CC1CC1 [Compound 72, (Z)-1-(3-(3-(3,5-bis(trifluoromethyl)phenyl)-1H-1,2,4-triazol-1-yl)acryloyl)-2-(cyclopropylmethyl)pyrazolidin-3-one] | – | – | – | – | – | – | – |
| > 6.00 | 0.021 | 0.041 | – | – | 4080 | 389 | 6.56 | 0.5 | 2.7 | COC1=CC(=O)N(NC(=O)/C=C\n2cnc(-c3cc(C(F)(F)F)cc(C(F)(F)F)c3)n2)CC1 [Compound 87, (Z)-3-(3-(3,5-bis(trifluoromethyl)phenyl)-1H-1,2,4-triazol-1-yl)-N-(4-methoxy-6-oxo-3,6-dihydropyridin-1(2H)-yl)acrylamide] | – | – | – | – | – | – | pIC50 [1]: 7.68; pIC50 [2]: 7.39; folds of enhancement of activity in the anti-proliferative assay ([2]; in comparison to KPT330, BxPC-3 and MDA-MB-231 cells): 20 folds |
